Source: patent US11332492B2, “CD73 inhibitors and therapeutic uses thereof” (Jiangsu Hengrui Medicine Co., Ltd., priority 2018, dated 2022)

Experiments:
[1] = target: recombinant human 5′-nucleotidase (CD73) (Homo sapiens (Human), UniProt P21589); assay: Inhibition of CD73 enzyme activity in vitro (Malachite Green phosphate detection, CMP substrate); details: 0.34 nM recombinant human CD73, 2 h pre-incubation at 37° C., 45 μM CMP; read-out: IC50 values of biochemical inhibition of CD73 enzymatic activity
Description: Test Example 1, Test of the Compounds of the Present Invention for their Inhibition on CD73 Enzyme Activity In Vitro
CD73 enzyme, an ecto-5′-Nucleotidase, converts extracellular nucleoside-5′-monophosphates to nucleosides, with AMP or CMP as the preferred substrate. In this assay, recombinant human CD73 expressed from a Chinese hamster ovary cell line (R&D Systems) was used to convert cytidine monophosphate (CMP) to cytidine and phosphate. Before adding substrate, CD73 enzyme was pre-incubated with compounds for 2 hours. The amount of phosphate was then measured by Malachite Green Phosphate Detection Kit. The experimental method is summarized as follows:
Compounds are first dissolved in DMSO to 10 mM as a stock solution. When determining the IC50 of the compound, prepare 3-fold serial dilutions with a highest concentration of 125 μM for a total of 12 concentration points and ensure each dilution containing equal amount of DMSO. In each well of 384-well plate, 0.34 nM of recombinant human 5′-nucleotidase (CD73) was pre-incubated at 37° C. for 2 hours with the compounds tested in assay buffer containing 20 mM HEPES buffer (pH 7.4), 137 mM NaCl, 0.001% Tween 20. The final reaction volume of the reaction in each well was 12 μL. The highest concentration of compound was 125 μM and the DMSO concentration was 1.25%. After pre-incubation, 3 μL of CMP dissolved in assay buffer was added to each reaction. The final CMP concentration was 45 μM. The reaction was incubated at 37° C. for 15 minutes. Then 3 μL of Malachite Green Reagent A was added to each reaction. Spin the plate briefly in centrifuge for 30 seconds. After incubation for additional 10 minutes at room temperature, 3 μL of malachite green Reagent B was added to each reaction. Spin the plate briefly in centrifuge for 30 seconds. After 20 minutes of incubation at room temperature, the signal was read on a TECAN reader at OD620. The reaction containing CD73 enzyme, substrate CMP and DMSO (no compound) is used as an assay positive control while the reaction containing substrate CMP and DMSO without the CD73 enzyme as an assay negative control. IC50 values were calculated by plotting the logarithm of the compound concentration and the percent inhibition using the appropriate program in GraphPad Prism.
The biochemical inhibitions of CD73 enzymatic activities by the compounds of the present invention were determined by the assay described above, and the resulting IC50 values are shown in Table 1.

[2] = system: human peripheral blood mononuclear cells (PBMCs); assay: IFNγ cytokine production in human PBMCs with AMP and CD3/CD28 antibody beads (HTRF); format: cell-based; details: compound 10 μM, 50 μM AMP, 72 hours
Description: Test Example 2 Determination of Compound of the Present Invention Modulates Cellular Immune Function by IFNγ Cytokine Production
Lymphocyte medium and TexMACS medium were incubated in a water bath at 37° C. 10 mL of incubated lymphocyte medium was added to a 50 mL conical tube. The cells were quickly thawed in a 37° C. water bath and transferred to a 50 ml tube and the tube gently swirled. The cell suspension was centrifuged at 1100 rpm for 10 minutes at room temperature. The supernatant was removed, and the cell pellet gently resuspended in 10 mL of TexMACS medium. The cells were counted to make 5×10^5 cells/ml. 100 μL of 5×10^5 cells/ml of PBMCs seeds, inserted into a 96-well plate (cell density of 50,000 cells/well), and the most outer edge wells of the 96-well plate were filled with water and were not used for the test. […] Read the values of 665 nm and 620 nm on a PHERAstar FSX Multilabel Reader.
Calculated ratio=(signal at 665 nm/signal at 620 nm)×10^4, which reflected the “raw signal”. […] The concentration of IFNγ cytokine of each sample corresponding to the standard curve was calculated. […]
The production of IFNγ cytokines by the compounds of the present invention was measured by the above test. […]

Sequence of recombinant human 5′-nucleotidase (CD73) (P21589 27-574): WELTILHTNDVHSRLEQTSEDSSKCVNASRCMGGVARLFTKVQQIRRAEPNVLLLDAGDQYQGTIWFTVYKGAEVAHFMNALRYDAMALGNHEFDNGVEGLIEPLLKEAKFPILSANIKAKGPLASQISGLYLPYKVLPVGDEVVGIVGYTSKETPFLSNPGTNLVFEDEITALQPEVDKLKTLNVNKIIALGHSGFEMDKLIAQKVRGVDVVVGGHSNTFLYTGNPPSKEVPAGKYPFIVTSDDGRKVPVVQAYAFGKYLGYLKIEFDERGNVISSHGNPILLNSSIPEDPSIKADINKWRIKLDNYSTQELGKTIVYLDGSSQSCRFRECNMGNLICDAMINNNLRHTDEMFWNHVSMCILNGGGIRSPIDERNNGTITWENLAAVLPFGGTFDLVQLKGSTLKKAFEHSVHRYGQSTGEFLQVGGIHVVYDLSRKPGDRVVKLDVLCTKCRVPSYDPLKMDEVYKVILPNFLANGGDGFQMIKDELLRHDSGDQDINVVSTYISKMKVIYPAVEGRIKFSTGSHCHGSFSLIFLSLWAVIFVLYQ

IC50 [1] [nM] | Structure (SMILES) | Response rate of IFNγ cytokines by a compound (fold) as compared to vehicle control (DMSO) [2] [folds]
0.013 | O=P(O)(O)COC[C@H]1O[C@@H](n2ncc3c(N4CC5(CCc6ccccc65)C4)nc(Cl)nc32)[C@H](O)[C@@H]1O [Example 2, ((((2R,3S,4R,5R)-5-(6-chloro-4-(2′,3′-dihydrospiro[azetidine-3,1′-inden]-1-yl)-1H-pyrazolo[3,4-d]pyrimidin-1-yl)-3,4-dihydroxytetrahydrofuran-2-yl)methoxy)methyl)phosphonic acid] | 4.3
0.11 | O=P(O)(O)COC[C@H]1O[C@@H](n2ncc3c(N4CC5(CCCCC5)C4)nc(Cl)nc32)[C@H](O)[C@@H]1O [Example 1, ((((2R,3S,4R,5R)-5-(6-chloro-4-(2-azaspiro[3.5]nonan-2-yl)-1H-pyrazolo[3,4-d]pyrimidin-1-yl)-3,4-dihydroxytetrahydrofuran-2-yl)methoxy)methyl)phosphonic acid] | 4.1
710 | CC(C)OC(=O)OCOP(=O)(COC[C@H]1O[C@@H](n2ncc3c(N4CC5(CCc6ccccc65)C4)nc(Cl)nc32)[C@H](O)[C@@H]1O)OCOC(=O)OC(C)C [Example 4, ((((((2R,3S,4R,5R)-5-(6-chloro-4-(2′,3′-dihydrospiro[azetidine-3,1′-inden]-1-yl)-1H-pyrazolo[3,4-d]pyrimidin-1-yl)-3,4-dihydroxytetrahydrofuran-2-yl)methoxy)methyl)phosphoryl)bis(oxy))bis(methylene) diisopropyl decarbonate] | 
8.5 | CC(OC(=O)C(C)(C)C)OP(=O)(O)COC[C@H]1O[C@@H](n2ncc3c(N4CC5(CCc6ccccc65)C4)nc(Cl)nc32)[C@H](O)[C@@H]1O (stereo partly drawn) [Example 9, 1-((((((2R,3S,4R,5R)-5-(6-chloro-4-(2′,3′-dihydrospiro[azetidine-3,1′-inden]-1-yl)-1H-pyrazolo[3,4-d]pyrimidin-1-yl)-3,4-dihydroxytetrahydrofuran-2-yl)methoxy)methyl)(hydroxy)phosphoryl)oxy)ethyl pivalate] | 
300 | O=P(O)(O)Cc1cccc(OC[C@H]2O[C@@H](n3ncc4c(N5CC6(CCCCC6)C5)nc(Cl)nc43)[C@H](O)[C@@H]2O)c1 [Example 12, (3-(((2R,3S,4R,5R)-5-(6-chloro-4-(2-azaspiro[3.5]nonan-2-yl)-1H-pyrazolo[3,4-d]pyrimidin-1-yl)-3,4-dihydroxytetrahydrofuran-2-yl)methoxy)benzyl)phosphonic acid] | 
0.25 | O=P(O)(O)COC[C@H]1O[C@@H](n2ncc3c(N4CC5(CCc6ccc(F)cc65)C4)nc(Cl)nc32)[C@H](O)[C@@H]1O [Example 6, ((((2R,3S,4R,5R)-5-(6-chloro-4-(6′-fluoro-2′,3′-dihydrospiro[azetidine-3,1′-inden]-1-yl)-1H-pyrazolo[3,4-d]pyrimidin-1-yl)-3,4-dihydroxytetrahydrofuran-2-yl)methoxy)methyl)phosphonic acid] | 
0.074 | O=P(O)(O)COC[C@H]1O[C@@H](n2ncc3c(N4CC5(C4)OCc4cc(Cl)ccc45)nc(Cl)nc32)[C@H](O)[C@@H]1O [Example 5, ((((2R,3S,4R,5R)-5-(6-chloro-4-(5′-chloro-3′H-spiro[azetidine-3,1′-isobenzofuran]-1-yl)-1H-pyrazolo[3,4-d]pyrimidin-1-yl)-3,4-dihydroxytetrahydrofuran-2-yl)methoxy)methyl)phosphonic acid] | 
2.1 | CC(C)OC(=O)OCOP(=O)(O)COC[C@H]1O[C@@H](n2ncc3c(N4CC5(CCc6ccccc65)C4)nc(Cl)nc32)[C@H](O)[C@@H]1O [Example 3, ((((((2R,3S,4R,5R)-5-(6-chloro-4-(2′,3′-dihydrospiro[azetidine-3,1′-inden]-1-yl)-1H-pyrazolo[3,4-d]pyrimidin-1-yl)-3,4-dihydroxytetrahydrofuran-2-yl)methoxy)methyl)(hydroxy)phosphoryl)oxy)methyl isopropyl carbonate] | 
0.13 | COc1ccc2c(c1)CCC21CN(c2nc(Cl)nc3c2cnn3[C@@H]2O[C@H](COCP(=O)(O)O)[C@@H](O)[C@H]2O)C1 [Example 7, ((((2R,3S,4R,5R)-5-(6-chloro-4-(5′-methoxy-2′,3′-dihydrospiro[azetidine-3,1′-inden]-1-yl)-1H-pyrazolo[3,4-d]pyrimidin-1-yl)-3,4-dihydroxytetrahydrofuran-2-yl)methoxy)methyl)phosphonic acid] | 

Structure (SMILES) | IC50 [1] [nM] | Response rate of IFNγ cytokines by a compound (fold) as compared to vehicle control (DMSO) [2] [folds]
O=P(O)(COC[C@H]1O[C@@H](n2ncc3c(N4CC5(CCc6ccccc65)C4)nc(Cl)nc32)[C@H](O)[C@@H]1O)Oc1ccccc1 [Example 11, phenyl hydrogen ((((2R,3S,4R,5R)-5-(6-chloro-4-(2′,3′-dihydrospiro[azetidine-3,1′-inden]-1-yl)-1H-pyrazolo[3,4-d]pyrimidin-1-yl)-3,4-dihydroxytetrahydrofuran-2-yl)methoxy)methyl)phosphonate] | 0.9 | 
O=P(COC[C@H]1O[C@@H](n2ncc3c(N4CC5(CCc6ccccc65)C4)nc(Cl)nc32)[C@H](O)[C@@H]1O)(Oc1ccccc1)Oc1ccccc1 [Example 10, diphenyl((((2R,3S,4R,5R)-5-(6-chloro-4-(2′,3′-dihydrospiro[azetidine-3,1′-inden]-1-yl)-1H-pyrazolo[3,4-d]pyrimidin-1-yl)-3,4-dihydroxytetrahydrofuran-2-yl)methoxy)methyl)phosphonate] | 7.6 | 
